Measured values reported in patent US8748466B2, “Isoxazole derivatives useful as antibacterial agents” (Pfizer Inc., priority 2011, dated 2014).
Converted amounts (≈) assume the structure as drawn. Read-outs that look alike come from different tables or passages of the source.

Tests used:
[1] = molecular target: T1, Pseudomonas aeruginosa LpxC enzyme (Pseudomonas aeruginosa, UniProt P47205); assay: LpxC enzyme IC50 assay (PA LpxC enzyme IC50), BioTrove RapidFire mass spectrometry; assay type: biochemical
T1 construct: made in house; host or cells: E. coli
T1 sequence (P47205 1-303): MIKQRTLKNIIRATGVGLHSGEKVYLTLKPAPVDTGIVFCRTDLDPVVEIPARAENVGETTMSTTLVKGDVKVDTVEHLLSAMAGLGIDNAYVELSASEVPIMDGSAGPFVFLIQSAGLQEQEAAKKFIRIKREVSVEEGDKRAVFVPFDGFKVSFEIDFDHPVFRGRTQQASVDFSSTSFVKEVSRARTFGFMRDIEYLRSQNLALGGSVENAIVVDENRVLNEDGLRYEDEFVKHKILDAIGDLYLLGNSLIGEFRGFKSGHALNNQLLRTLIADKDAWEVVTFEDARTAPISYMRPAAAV
Method: In order to assess the compounds biological activity selected in vitro assays were conducted on selected compounds. One of the assays measured the compounds ability to disrupt the synthesis of lipopolysaccharide, LPS, which is a component of the outer membrane of Gram-negative bacteria. Disruption of this synthesis is lethal to the bacteria. The assay determined the compound's ability to inhibit LpxC, which is the first enzyme in the biosynthetic pathway for LPS (measured as IC50). Additionally, MICs (minimal inhibitory concentrations) were determined for several bacteria. The specific protocols are described below:
A) IC50 Assay LpxC Enzyme from P. aeruginosa Labeled as PA LpxC Enzyme IC50):
At the end of 1 hour, 5 ul of 1 N HCl was added to stop the enzyme reaction, the plates were centrifuged, and then processed with the BioTrove Rapidfire HTMS Mass Spectrometry System. A no-enzyme control was used in calculating the IC50 values from the percent conversion values.

[2] = system: Acinetobacter baumannii/haemolyticus: Multidrug-resistant clinical isolate AB-3167; assay: MIC determination (CLSI), AB-3167; assay type: cell-based; details: overnight incubation, duplicate, lower of the two values reported
Method: (§1) The in vitro antibacterial activity of compounds described in the Examples was evaluated by minimum inhibitory concentration (MIC) testing according to Clinical and Laboratory Standards Institute (CLSI). See: Clinical and Laboratory Standards Institute. Methods for Dilution Antimicrobial Susceptibility Tests for Bacteria that Grow Aerobically; Approved Standard-Eighth Edition. CLSI document M7-A8 [ISBN 1-56238-689-1]. Clinical and Laboratory Standards Institute, 940 West Valley Road, Suite 1400, Wayne, Pa. 19087-1898 USA, 2006; also Clinical and Laboratory Standards Institute. Performance Standards for Antimicrobial Susceptibility Testing; Twentieth Informational Supplement. CLSI document M100-S20 [ISBN1-56238-716-2]. Clinical and Laboratory Standards Institute.
(§2) The MIC determination is a standard laboratory method for evaluating the antibacterial activity of a compound. The MIC represents the lowest drug concentration that inhibits visible growth of bacteria following overnight incubation. […] Typically, the drug concentration range is broken down into 2-fold increments (e.g., 0.06 μg/mL, 0.12 μg/mL. 0.25 μg/mL, 0.50 μg/mL, 1.0 μg/mL, etc.) and the various drug concentrations are all individually incubated overnight with approximately the same number of bacteria. The MIC is then determined by visually inspecting the drug effect at each concentration, and identifying the lowest drug concentration that has inhibited bacterial growth as compared to the drug free control. Typically, bacteria continue to grow at drug concentrations lower than the MIC and don't grow at concentrations at and above the MIC.
(§3) The MIC values described in Tables 4 and 5 below were derived from assays wherein each test compound was evaluated in duplicate. In cases where the duplicate values varied by 0-2-fold, the lower of the two values was reported below. Generally speaking, if the duplicate values varied by more than 2-fold, the assay was considered non-valid and was repeated until the variation between duplicate runs was 2-fold. In line with the CLSI guidelines referred to above, both control organisms and reference compounds were utilized in each MIC assay to provide proper quality control. MIC values generated with these control organisms and reference compounds were required to fall within a defined range for the assay to be considered valid and be included herein. Those skilled in the art will recognize that MIC values can and do vary from experiment to experiment. Generally speaking, it should be recognized that MIC values often vary +/−2-fold from experiment to experiment. While a single MIC is reported for each compound and each microorganism, the reader should not conclude that each compound was only tested once. Several of the compounds were subjected to multiple tests. The data reported in Tables 4 and 5 is reflective of the compound's relative activity and different MICs may have been generated on these occasions in line with the guidelines described above.
(§4) The following bacterial strains were used in these MIC determinations:
3) Acinetobacter baumannii/haemolyticus: Multidrug-resistant clinical isolate labeled as AB-3167 in Tables 4 and 5;

[3] = system: Pseudomonas aeruginosa UC12120 (mouse virulent); assay: MIC determination (CLSI), PA-UC12120; assay type: cell-based; details: UC12120, read-out: PA-UC12120 MIC
Method: as §1, §2, §3, §4
1) Pseudomonas aeruginosa UC12120 (mouse virulent) labeled as PA-UC12120 in Tables 4 and 5;

[4] = system: Escherichia coli EC-1: VOGEL, mouse virulent; assay: MIC determination (CLSI), EC-1; assay type: cell-based; details: read-out: EC-1 MIC
Method: as §1, §2, §3, §4
2) Escherichia coli EC-1: VOGEL, mouse virulent labeled as EC-1 in Tables 4 and 5;

[5] = P. aeruginosa LpxC enzyme 0.1 nM, 25° C., 1 hour, pH 8.0, read-out: PA:IC50

| Compound | IC50 [1, 5] | MIC [2] | MIC [3] | MIC [4] | IC50 [1] |
| --- | --- | --- | --- | --- | --- |
| CCOC(C)(C)c1cc(CCC(C)(C(=O)NO)S(C)(=O)=O)on1 (racemic) [Example 31, 4-[3-(1-ethoxy-1-methylethyl)isoxazol-5-yl]-N-hydroxy-2-methyl-2-(methylsulfonyl)butanamide] | > 100 nM | > 64 µg/mL | > 64 µg/mL | > 64 µg/mL |  |
| CC(CCc1cc(CCc2ccccc2)no1)(C(=O)NO)S(C)(=O)=O (racemic) [Example 39, N-hydroxy-2-methyl-2-(methylsulfonyl)-4-[3-(2-phenylethyl)isoxazol-5-yl]butanamide] | 9.8 nM | > 64 µg/mL | 4 µg/mL (≈ 10.9 µM) | 32 µg/mL (≈ 87.3 µM) |  |
| CC(CCc1cc(-c2ccncc2F)no1)(C(=O)NO)S(C)(=O)=O (racemic) [Example 37, 4-[3-(3-fluoropyridin-4-yl)isoxazol-5-yl]-N-hydroxy-2-methyl-2-(methylsulfonyl)butanamide] | 52.4 nM | > 64 µg/mL | 16 µg/mL (≈ 44.8 µM) | > 64 µg/mL |  |
| CCOC(=O)N(Cc1cc(CCC(C)(C(=O)NO)S(C)(=O)=O)no1)C(C)C (racemic) [Example 23, ethyl ({3-[4-(hydroxyamino)-3-methyl-3-(methylsulfonyl)-4-oxobutyl]isoxazol-5-yl}methyl)isopropylcarbamate] | > 100 nM | > 64 µg/mL | > 64 µg/mL | > 64 µg/mL |  |
| C[C@@](CCc1cc(-c2ccccc2)no1)(C(=O)NO)S(C)(=O)=O [Example 4, (2R)-N-hydroxy-2-methyl-2-(methylsulfonyl)-4-(3-phenylisoxazol-5-yl)butanamide] | 5.78 nM | > 64 µg/mL | 0.25 µg/mL (≈ 0.739 µM) | 4 µg/mL (≈ 11.8 µM) |  |
| CC(CCc1cc(-c2cccc(Cl)c2Cl)on1)(C(=O)NO)S(C)(=O)=O (racemic) [Example 30, 4-[5-(2,3-dichlorophenyl)isoxazol-3-yl]-N-hydroxy-2-methyl-2-(methylsulfonyl)butanamide] |  | > 64 µg/mL | 1 µg/mL (≈ 2.46 µM) | 4 µg/mL (≈ 9.82 µM) | 2.7 nM |
| COc1ccc(-c2cc(CC[C@](C)(C(=O)NO)S(C)(=O)=O)on2)c(F)c1 [Example 3, (2R)-4-[3-(2-fluoro-4-methoxyphenyl)isoxazol-5-yl]-N-hydroxy-2-methyl-2-(methylsulfonyl)butanamide] |  | > 64 µg/mL | 0.5 µg/mL (≈ 1.29 µM) | 4 µg/mL (≈ 10.4 µM) | 4.4 nM |
| CC(CCc1cc(-c2ccc(F)c(F)c2F)no1)(C(=O)NO)S(C)(=O)=O (racemic) [Example 36, N-hydroxy-2-methyl-2-(methylsulfonyl)-4-[3-(2,3,4-trifluorophenyl)isoxazol-5-yl]butanamide] | 3.9 nM | > 64 µg/mL | 1 µg/mL (≈ 2.55 µM) | 16 µg/mL (≈ 40.8 µM) |  |
| CC(CCc1cc(-c2ccc(F)cc2)no1)(C(=O)NO)S(C)(=O)=O (racemic) [Example 44, 4-[3-(4-fluorophenyl)isoxazol-5-yl]-N-hydroxy-2-methyl-2-(methylsulfonyl)butanamide] | 3.8 nM | > 64 µg/mL | 1 µg/mL (≈ 2.81 µM) | 16 µg/mL (≈ 44.9 µM) |  |
| C[C@@](CCc1cc(-c2ccccc2)on1)(C(=O)NO)S(C)(=O)=O [Example 6, (2R)-N-hydroxy-2-methyl-2-(methylsulfonyl)-4-(5-phenylisoxazol-3-yl)butanamide] |  | > 64 µg/mL | 0.25 µg/mL (≈ 0.739 µM) | 8 µg/mL (≈ 23.6 µM) | 0.51 nM |
| COc1cccc(OC)c1-c1cc(CCC(C)(C(=O)NO)S(C)(=O)=O)no1 (racemic) [Example 24, 4-[5-(2,6-dimethoxyphenyl)isoxazol-3-yl]-N-hydroxy-2-methyl-2-(methylsulfonyl)butanamide] | > 100 nM | > 64 µg/mL | > 64 µg/mL | > 64 µg/mL |  |
| Cc1ccc(-c2cc(CCC(C)(C(=O)NO)S(C)(=O)=O)on2)cc1 (racemic) [Example 38, N-hydroxy-2-methyl-4-[3-(4-methylphenyl)isoxazol-5-yl]-2-(methylsulfonyl)butanamide] |  | > 64 µg/mL | 1 µg/mL (≈ 2.84 µM) | 8 µg/mL (≈ 22.7 µM) | 2.9 nM |
| CC(CCc1cc(-c2ccc(N3CCOCC3)c(F)c2)no1)(C(=O)NO)S(C)(=O)=O (racemic) [Example 48, 4-[3-(3-fluoro-4-morpholin-4-ylphenyl)isoxazol-5-yl]-N-hydroxy-2-methyl-2-(methylsulfonyl)butanamide] | 24.2 nM | > 64 µg/mL | 32 µg/mL (≈ 72.5 µM) | 32 µg/mL (≈ 72.5 µM) |  |
| CC(CCc1cc(-c2ccc(F)c(F)c2)no1)(C(=O)NO)S(C)(=O)=O (racemic) [Example 41, 4-[3-(3,4-difluorophenyl)isoxazol-5-yl]-N-hydroxy-2-methyl-2-(methylsulfonyl)butanamide] | 6.8 nM | > 64 µg/mL | 2 µg/mL (≈ 5.34 µM) | 16 µg/mL (≈ 42.7 µM) |  |
| CC(CCc1cc(COCc2ccccc2)on1)(C(=O)NO)S(C)(=O)=O (racemic) [Example 9, 4-{5-[(benzyloxy)methyl]isoxazol-3-yl}-N-hydroxy-2-methyl-2-(methylsulfonyl)butanamide] | 25.1 nM | > 64 µg/mL | 8 µg/mL (≈ 20.9 µM) | > 64 µg/mL |  |
| CC(CCc1cc(-c2cccc(F)c2)on1)(C(=O)NO)S(C)(=O)=O (racemic) [Example 21, 4-[5-(3-fluorophenyl)isoxazol-3-yl]-N-hydroxy-2-methyl-2-(methylsulfonyl)butanamide] |  | > 64 µg/mL | 4 µg/mL (≈ 11.2 µM) | 32 µg/mL (≈ 89.8 µM) | 6.8 nM |
| CC(CCc1cc(-c2ccc3ccccc3n2)no1)(C(=O)NO)S(C)(=O)=O (racemic) [Example 35, N-hydroxy-2-methyl-2-(methylsulfonyl)-4-(3-quinolin-2-ylisoxazol-5-yl)butanamide] | 22.1 nM | > 64 µg/mL | 8 µg/mL (≈ 20.5 µM) | 32 µg/mL (≈ 82.2 µM) |  |
| CC(CCc1cc(-c2ccc3c(c2)OCO3)no1)(C(=O)NO)S(C)(=O)=O (racemic) [Example 33, 4-[3-(1,3-benzodioxol-5-yl)isoxazol-5-yl]-N-hydroxy-2-methyl-2-(methylsulfonyl)butanamide] | 5.1 nM | > 64 µg/mL | 2 µg/mL (≈ 5.23 µM) | 16 µg/mL (≈ 41.8 µM) |  |
| CC(CCc1cc(CNS(=O)(=O)c2ccc(F)cc2)on1)(C(=O)NO)S(C)(=O)=O (racemic) [Example 27, 4-[5-({[(4-fluorophenyl)sulfonyl]amino}methyl)isoxazol-3-yl]-N-hydroxy-2-methyl-2-(methylsulfonyl)butanamide] | > 100 nM | > 64 µg/mL | > 64 µg/mL | > 64 µg/mL |  |
| CC(CCc1cc(-c2ncccc2F)no1)(C(=O)NO)S(C)(=O)=O (racemic) [Example 43, 4-[3-(3-fluoropyridin-2-yl)isoxazol-5-yl]-N-hydroxy-2-methyl-2-(methylsulfonyl)butanamide] | > 100 nM | > 64 µg/mL | 32 µg/mL (≈ 89.5 µM) | 64 µg/mL (≈ 179 µM) |  |
